pEC50: −log10 of the molar value.
Target: T1, hNPRA (Homo sapiens, UniProt P16066)
T1 construct: expressed in transfected cells
T1 sequence (P16066 33-1061): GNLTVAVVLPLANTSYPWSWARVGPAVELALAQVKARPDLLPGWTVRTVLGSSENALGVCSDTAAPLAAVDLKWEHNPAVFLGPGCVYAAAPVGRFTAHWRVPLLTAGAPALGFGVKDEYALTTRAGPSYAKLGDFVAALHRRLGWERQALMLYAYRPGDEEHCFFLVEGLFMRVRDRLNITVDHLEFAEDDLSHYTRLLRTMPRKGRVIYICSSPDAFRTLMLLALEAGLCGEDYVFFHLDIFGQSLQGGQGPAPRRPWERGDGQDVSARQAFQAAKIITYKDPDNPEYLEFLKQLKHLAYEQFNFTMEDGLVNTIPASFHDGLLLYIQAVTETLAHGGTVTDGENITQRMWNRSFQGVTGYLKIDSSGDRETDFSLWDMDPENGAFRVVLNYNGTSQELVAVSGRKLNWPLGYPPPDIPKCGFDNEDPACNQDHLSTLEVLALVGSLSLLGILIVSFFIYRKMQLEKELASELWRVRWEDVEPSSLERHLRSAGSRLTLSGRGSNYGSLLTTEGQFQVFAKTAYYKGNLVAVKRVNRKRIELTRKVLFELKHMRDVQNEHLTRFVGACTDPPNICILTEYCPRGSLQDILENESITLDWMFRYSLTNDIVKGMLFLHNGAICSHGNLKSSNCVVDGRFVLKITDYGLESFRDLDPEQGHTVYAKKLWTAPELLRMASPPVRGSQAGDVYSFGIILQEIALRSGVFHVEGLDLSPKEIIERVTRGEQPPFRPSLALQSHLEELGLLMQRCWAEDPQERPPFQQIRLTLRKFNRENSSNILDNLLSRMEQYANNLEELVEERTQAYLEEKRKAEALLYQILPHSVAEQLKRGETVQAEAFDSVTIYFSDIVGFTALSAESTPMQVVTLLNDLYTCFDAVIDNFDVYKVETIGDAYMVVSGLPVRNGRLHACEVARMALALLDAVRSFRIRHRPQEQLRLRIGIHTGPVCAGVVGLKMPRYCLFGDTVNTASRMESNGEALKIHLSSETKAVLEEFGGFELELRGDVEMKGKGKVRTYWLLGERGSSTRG
Experiment: NPRA Functional Cell Assay (cGMP HTRF)
Assay type: cell-based
Conditions: Human NPRA HEK JumpIn stable cells; cGMP by HTRF after 1 hour at 37° C.; 10-point dose response
How it was run: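 HEK JumpIn cells stably expressing human, rat or dog NPRA incubated 1 hour at 37° C with compound (10-point titration) in Opti-MEM buffer with 100 uM IBMX and 100 uM RO20. cGMP measured by HTRF against an on-plate calibration curve; EC50 from 4-parameter fit, positive control 10 nM rat-ANP (rat) or 50 nM h-ANP (human, dog).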

Structure (SMILES)	pEC50
CCS(=O)(=O)c1ccc([C@@H](CCN2CCC(O)CC2)NC(=O)c2cc(F)c3nc4c(cc3c2)CC(F)(C(C)C)CC4)cn1 (stereo in doubt) [Example 30, (S)-N-((R)-1-(6-(ethylsulfonyl)pyridin-3-yl)-3-(4-hydroxypiperidin-1-yl)propyl)-4,7-difluoro-7-isopropyl-5,6,7,8-tetrahydroacridine-2-carboxamide]	6.01
CC(C)[C@]1(F)CCc2nc3c(F)cc(C(=O)N[C@H](CCN(C)C)c4ccc(-c5ccnnc5)nc4)cc3cc2C1 (racemic) [Example 37, dimethyl-[rac-(3R)-3-(6-pyridazin-4-yl-3-pyridyl)-3-[[rac-(7S)-4,7-difluoro-7-isopropyl-6,8-dihydro-5H-acridine-2-carbonyl]amino]propyl]ammonium;2,2,2-trifluoroacetate]	6.57
CC(C)[C@]1(F)CCc2nc3c(F)cc(C(=O)N[C@H](CCN4CCC[C@@H](O)C4)c4ccc(-c5ccnnc5)nc4)cc3cc2C1 (racemic) [Example 40, rac-(7S)-4,7-difluoro-7-isopropyl-N-[rac-(1R)-1-(6-pyridazin-4-yl-3-pyridyl)-3-[rac-(3R)-3-hydroxypiperidin-1-ium-1-yl]propyl]-6,8-dihydro-5H-acridine-2-carboxamide;2,2,2-trifluoroacetate]	6.47
CN1CC(NC(=O)c2cccc([C@@H](CCN3CCC[C@H]3CO)NC(=O)c3ccc4nc5c(cc4c3)C[C@@H](C3(C(F)F)CC3)CC5)c2)C1 [Example 23]	6.39
CC(C)[C@]1(F)CCc2nc3c(F)cc(C(=O)N[C@H](CCN4CCC5(CCCO5)CC4)c4ccc(-c5ccnnc5)nc4)cc3cc2C1 [Example 16, (7S)-4,7-difluoro-7-(1-methylethyl)-N-[(1R)-3-(1-oxa-8-azaspiro[4.5]dec-8-yl)-1-(6-pyridazin-4-ylpyridin-3-yl)propyl]-5,6,7,8-tetrahydroacridine-2-carboxamide]	6.46

Reference: patent publication US20220281886A1, “NATRIURETIC PEPTIDE RECEPTOR A AGONISTS USEFUL FOR THE TREATMENT OF CARDIOMETABOLIC DISEASES, KIDNEY DISEASE AND DIABETES” (Merck Sharp & Dohme Corp., priority 2019, published 2022)
